According to patent publication US20240368135A1 (VERTEX PHARMACEUTICALS INCORPORATED, priority 2021, published 2024):

Biological target: human NaV 1.8 (Homo sapiens, UniProt Q9Y5Y9)
Assay: E-VIPR assay detecting and measuring NaV inhibition properties
Type: cell-based
Conditions: HEK cells expressing truncated human NaV 1.8; no human serum; read-out: IC50 in the E-VIPR Assay
How it was run: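 HEK cells expressing truncated, fully active human NaV1.8, with KIR2.1 BacMam co-transduction, were loaded with CC2-DMPE/DiSBAC6(3) voltage-sensing dyes for 20 min at room temperature. Compounds were tested in 11-point 3-fold dilutions (300 nM top final), optionally with 25% human serum, under electrical stimulation with FRET read-out.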

Chain of human NaV 1.8 (Q9Y5Y9 126-399 limits assumed): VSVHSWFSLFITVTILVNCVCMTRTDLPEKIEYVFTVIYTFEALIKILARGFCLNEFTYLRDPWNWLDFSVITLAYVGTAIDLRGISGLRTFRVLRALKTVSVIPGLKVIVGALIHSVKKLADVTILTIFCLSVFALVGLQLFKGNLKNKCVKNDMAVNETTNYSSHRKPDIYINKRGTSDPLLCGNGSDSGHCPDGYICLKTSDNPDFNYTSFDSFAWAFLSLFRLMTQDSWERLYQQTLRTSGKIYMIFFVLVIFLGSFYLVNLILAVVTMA
Chain of human NaV 1.8 (Q9Y5Y9 660-890 limits assumed): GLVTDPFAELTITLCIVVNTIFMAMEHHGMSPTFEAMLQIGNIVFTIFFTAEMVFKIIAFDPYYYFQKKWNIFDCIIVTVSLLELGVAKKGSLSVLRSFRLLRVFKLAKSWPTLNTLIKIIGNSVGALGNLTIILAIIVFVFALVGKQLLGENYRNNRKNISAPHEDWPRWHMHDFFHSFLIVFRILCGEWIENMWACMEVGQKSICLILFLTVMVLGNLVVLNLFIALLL
Chain of human NaV 1.8 (Q9Y5Y9 1148-1722 limits assumed): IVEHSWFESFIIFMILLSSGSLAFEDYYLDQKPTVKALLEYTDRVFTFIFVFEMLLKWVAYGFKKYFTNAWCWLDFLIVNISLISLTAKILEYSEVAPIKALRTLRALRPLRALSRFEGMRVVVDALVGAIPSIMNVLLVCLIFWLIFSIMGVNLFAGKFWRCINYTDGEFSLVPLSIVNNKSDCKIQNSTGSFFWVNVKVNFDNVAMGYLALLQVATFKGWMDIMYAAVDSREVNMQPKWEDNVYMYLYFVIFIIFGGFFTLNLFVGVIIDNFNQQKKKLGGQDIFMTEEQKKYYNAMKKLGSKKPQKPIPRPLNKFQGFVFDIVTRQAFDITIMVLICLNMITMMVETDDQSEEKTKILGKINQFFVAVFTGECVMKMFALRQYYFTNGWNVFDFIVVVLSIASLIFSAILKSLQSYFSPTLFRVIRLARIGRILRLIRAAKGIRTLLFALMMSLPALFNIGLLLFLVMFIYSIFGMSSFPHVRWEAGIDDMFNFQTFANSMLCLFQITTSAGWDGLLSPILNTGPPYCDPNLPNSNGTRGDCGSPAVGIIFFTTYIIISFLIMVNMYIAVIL

Row | SMILES | IC50 [nM]
1 | C[C@H]1[C@@H](c2ccc(F)c(F)c2O[C@H]2C[C@@H](O)C2)[C@H](C(=O)Nc2ccc(C(N)=O)nc2)O[C@@]1(C)C(F)(F)F [Compound 655, 5-((2R,3S,4S,5R)-3-(3,4-difluoro-2-((1S,3R)-3-hydroxycyclobutoxy)phenyl)-4,5-dimethyl-5-(trifluoromethyl)tetrahydrofuran-2-carboxamido)picolinamide] | 10 to 100
2 | COc1c([C@H]2[C@H](C(=O)NCc3cc(C(N)=O)co3)O[C@@](C)(C(F)(F)F)[C@H]2C)ccc(F)c1F [Compound 286, 5-(((2R,3S,4S,5R)-3-(3,4-difluoro-2-methoxyphenyl)-4,5-dimethyl-5-(trifluoromethyl)tetrahydrofuran-2-carboxamido)methyl)furan-3-carboxamide] | ≥ 1000
3 | C[C@@H](CO)COc1c([C@H]2[C@H](C(=O)Nc3ccc(C(N)=O)nc3)O[C@@](C)(C(F)(F)F)[C@H]2C)ccc(F)c1F [Compound 616, 5-((2R,3S,4S,5R)-3-(3,4-difluoro-2-((S)-3-hydroxy-2-methylpropoxy)phenyl)-4,5-dimethyl-5-(trifluoromethyl)tetrahydrofuran-2-carboxamido)picolinamide] | 100 to 1000
4 | COc1c([C@H]2[C@H](C(=O)NC3(Cc4ccccc4)CC3)O[C@@](C)(C(F)(F)F)[C@H]2C)ccc(F)c1F [Compound 291, (2R,3S,4S,5R)-N-(1-benzylcyclopropyl)-3-(3,4-difluoro-2-methoxyphenyl)-4,5-dimethyl-5-(trifluoromethyl)tetrahydrofuran-2-carboxamide] | ≥ 1000
5 | COc1c([C@@H]2[C@@H](C(=O)Nc3cnc(C(N)=O)nc3)O[C@](C)(C(F)(F)F)[C@@H]2C)ccc(F)c1C(F)F (stereo in doubt) [Compound 172, rel-5((2S,3R,4R,5S)-3-(3-(difluoromethyl)-4-fluoro-2-methoxy-phenyl)-4,5-dimethyl-5-(trifluoromethyl)tetrahydrofuran-2-carboxamido)pyrimidine-2-carboxamide] | ≥ 1000

Further lines, results first:

Row | IC50 [nM] | SMILES
6 | 10 to 100 | COCCNC(COC)c1ccc(NC(=O)[C@@H]2O[C@@](C)(C(F)(F)F)[C@@H](C)[C@H]2c2ccc(F)c(F)c2OC)cn1 (single isomer, unassigned) [Compound 417, rel-(2R*,3S*,4S*,5R*)-3-(3,4-difluoro-2-methoxyphenyl)-N-(6-(2-methoxy-1-((2-methoxyethyl)amino)-ethyl)pyridin-3-yl)-4,5-dimethyl-5-(trifluoromethyl)-tetrahydrofuran-2-carboxamide]
7 | < 10 | COc1c([C@H]2[C@H](C(=O)Nc3cc(C(O)CF)ncc3F)O[C@@](C)(C(F)(F)F)[C@H]2C)ccc(F)c1F (single isomer, unassigned) [Compound 24]
8 | < 10 | COc1c([C@H]2[C@H](C(=O)Nc3cn(C[C@H](O)CO)nc3C)O[C@@](C)(C(F)(F)F)[C@H]2C)ccc(F)c1F [Compound 332, (2R,3S,4S,5R)-3-(3,4-difluoro-2-methoxy-phenyl)-N-[1-[(2S)-2,3-dihydroxypropyl]-3-methyl-pyrazol-4-yl]-4,5-dimethyl-5-(trifluoromethyl)tetrahydrofuran-2-carboxamide]
9 | < 10 | C[C@H]1[C@@H](c2ccc(F)c(F)c2OC(F)F)[C@H](C(=O)Nc2ccc(C(N)=O)nc2)O[C@@]1(C)C(F)(F)F (single isomer, unassigned) [Compound 94]
10 | < 10 | Cc1nocc1NC(=O)[C@@H]1O[C@@](C)(C(F)(F)F)[C@@H](C)[C@H]1c1ccc(F)c(F)c1OCCO [Compound 558, (2R,3S,4S,5R)-3-(3,4-difluoro-2-(2-hydroxyethoxy)phenyl)-4,5-dimethyl-N-(3-methylisoxazol-4-yl)-5-(trifluoromethyl)tetrahydrofuran-2-carboxamide]
11 | < 10 | C=C(CO)COc1c([C@H]2[C@H](C(=O)Nc3cn(C(F)F)nc3C)O[C@@](C)(C(F)(F)F)[C@H]2C)ccc(F)c1F [Compound 601, (2R,3S,4S,5R)-3-[3,4-difluoro-2-[2-(hydroxymethyl)allyloxy]phenyl]-N-[1-(difluoromethyl)-3-methyl-pyrazol-4-yl]-4,5-dimethyl-5-(trifluoromethyl)tetrahydrofuran-2-carboxamide]
